Test results reported in US20260001928A1 (CORTERIA PHARMACEUTICALS, priority 2022, published 2026).
*1 amine or outer side, *2 acyl side, *3 side chain or, on linkers, in order; H or OH if unused. Where a SMILES comes first, the peptide text is derived from it. Side-chain parts run from the residue outwards. [ ]: non-standard residue; d: D form. The star is where a group is joined. C20 diacid = O=C(O)CCCCCCCCCCCCCCCCCCC(=O)*; C18 diacid = O=C(O)CCCCCCCCCCCCCCCCC(=O)*; γGlu = O=C(O)[C@H](CCC(=O)[*:2])N[*:1]; NMeI = CC[C@H](C)[C@H](NC)C(=O)O; αMeL = CC(C)C[C@](C)(N)C(=O)O; AEEA = NCCOCCOCC(=O)O; Aib = CC(C)(N)C(=O)O

Experiments:
[1] = Chemical stability in buffer (pH 7.4 / pH 4.5), % purity loss; type: physicochemical; settings: 40° C. vs 5° C., 14 or 28 days; for Buffer stability pH 7.4 % purity loss: 100 mM phosphate buffer pH 7.4; for Buffer stability pH 4.5 % purity loss: 100 mM acetate buffer pH 4.5
Outline: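 LC-UV gave % loss after 14 or 28 days of storage at 5 °C or 40 °C. Samples were diluted supernatants from compound incubated 1 h at room temperature at 10 mg/mL target, in 100 mM acetate pH 4.5 or 100 mM phosphate pH 7.4.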

Sprague Dawley rats = test: Effect on systolic blood pressure, telemetry in Sprague Dawley rats; type: in vivo, rat; settings: 0.1 mg/kg SC; for Systolic blood pressure (Mean) % change from baseline, 8 h / Systolic blood pressure (Mean) % change from baseline, 12 h / Systolic blood pressure (Mean) % change from baseline, 24 h: n=2; for Duration of action: last time point with an effect on BP still observed
Outline: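 Values are % change from a 1 h pre-dose baseline in systolic pressure, tracked by telemetry for up to 48 hours after a single 0.1 mg/kg subcutaneous dose. Rats (Sprague Dawley, n=2 per peptide) carried aortic catheters and recovered at least 10 days post-surgery; duration of action marks the last time point still showing an effect.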

human CRF2a receptor = target: T1, human CRF2a receptor (Homo sapiens, UniProt Q13324); test: Activity at human CRF2a receptor, cAMP functional assay in TeloHEAC cells; type: cell-based; settings: TeloHEAC cells stably expressing human CRF2a receptor, relative to urocortin 2 (100 nM = 100%)
T1 construct: expressed in transfected cells; host or cells: TeloHEAC cells
T1 sequence (Q13324 1-411): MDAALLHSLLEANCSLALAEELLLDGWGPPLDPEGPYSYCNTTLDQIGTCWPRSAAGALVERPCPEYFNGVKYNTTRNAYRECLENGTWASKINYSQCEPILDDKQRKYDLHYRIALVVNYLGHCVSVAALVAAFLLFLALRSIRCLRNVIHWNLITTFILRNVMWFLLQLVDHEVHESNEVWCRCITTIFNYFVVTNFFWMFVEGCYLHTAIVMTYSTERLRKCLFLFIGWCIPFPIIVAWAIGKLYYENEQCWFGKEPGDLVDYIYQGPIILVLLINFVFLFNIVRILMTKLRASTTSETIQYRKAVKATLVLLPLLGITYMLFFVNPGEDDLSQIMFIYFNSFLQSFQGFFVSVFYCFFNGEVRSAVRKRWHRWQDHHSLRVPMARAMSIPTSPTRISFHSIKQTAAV
Outline: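 cAMP accumulation was measured by HTRF 665/620 nm ratio after 30 min at 37° C compound exposure (16 twofold dilutions) of CRF2a-expressing TeloHEAC cells, 10000/well, in HEPES-buffered HBSS plus IBMX. Activity was normalised to urocortin 2 at 100 nM (100%), and EC50 was the concentration giving half-maximal activation.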

[2] = Pharmacokinetics in male Sprague Dawley rats after subcutaneous administration; type: in vivo; settings: plasma, rat, SC, 0.1 mg/kg
[3] = In vitro subcutaneous tissue supernatant (SCts) stability and metabolite identification, rat; type: in vitro ADME; parameters: remaining at 2 h: dose or concentration left out as unconfirmed; settings: male, Sprague Dawley; rat subcutaneous tissue supernatant (SCts), 37° C, 2 h

Row | Buffer stability pH 7.4 % purity loss [1] | EC50 (human CRF2a receptor) | AUC(0-t) [2] | Cmax [2] | remaining at 2 h [3] | Buffer stability pH 4.5 % purity loss [1] | Compound | Systolic blood pressure (Mean) % change from baseline, 8 h (Sprague Dawley rats) | Systolic blood pressure (Mean) % change from baseline, 12 h (Sprague Dawley rats) | Systolic blood pressure (Mean) % change from baseline, 24 h (Sprague Dawley rats) | Duration of action (Sprague Dawley rats)
1 | 0/nd ^ % | 300 pM | 4430 ng·h/mL | 291 ng/mL | 77% |  | CC[C@H](C)[C@H](NC(C)=O)C(=O)N[C@H](C(=O)N[C@@H](CC(C)C)C(=O)N[C@@H](CO)C(=O)N[C@@H](CC(C)C)C(=O)N[C@@H](CC(=O)O)C(=O)N[C@@H](C(=O)N1CCC[C@H]1C(=O)N[C@H](C(=O)N[C@@H](CCCCN)C(=O)N[C@@](C)(CC(C)C)C(=O)N[C@@H](CCCCNC(=O)COCCOCCNC(=O)COCCOCCNC(=O)CC[C@H](NC(=O)CCCCCCCCCCCCCCCCC(=O)O)C(=O)O)C(=O)N[C@@H](CCCCN)C(=O)N[C@H](C(=O)N[C@@H](CC(C)C)C(=O)N[C@@H](CC(C)C)C(=O)N[C@@H](CCC(=O)O)C(=O)N[C@@H](CCC(N)=O)C(=O)N[C@@H](CCC(=O)O)C(=O)N[C@@H](CCCCN)C(=O)N[C@@H](CCC(N)=O)C(=O)N[C@@H](CCCCN)C(=O)N[C@@H](CCCCN)C(=O)N[C@@H](CCC(N)=O)C(=O)N[C@@H](CCCNC(=N)N)C(=O)N[C@@H](CCC(=O)O)C(=O)N[C@@H](CCC(N)=O)C(=O)N[C@@H](C)C(=O)N[C@@H](CCC(=O)O)C(=O)N[C@H](C(=O)N[C@@H](CC(N)=O)C(=O)NC(C)(C)C(=O)N[C@@H](CCC(N)=O)C(=O)N[C@H](C(=O)N[C@@H](CC(C)C)C(=O)N[C@@H](C)C(=O)N[C@@H](CCC(N)=O)C(=O)N[C@H](C(N)=O)C(C)C)[C@@H](C)CC)[C@@H](C)O)[C@@H](C)CC)[C@@H](C)CC)C(C)C)C(C)C [compound 110] (Ac-IVLSLD[dV]PIK[αMeL]K([AEEA-AEEA-γGlu-C18 diacid])KILLEQEKQKKQREQAETN[Aib]QILAQV-NH2) | −19% | −10% | −6% | 20 h
2 | 0/0 ^ % | 600 pM | 3540 ng·h/mL | 225 ng/mL |  | 0/0 ^ % | CC[C@H](C)[C@H](NC)C(=O)N[C@H](C(=O)N[C@@H](CC(C)C)C(=O)N[C@@H](CO)C(=O)N[C@@H](CC(C)C)C(=O)N[C@@H](CC(=O)O)C(=O)N[C@@H](C(=O)N1CCC[C@H]1C(=O)N[C@H](C(=O)N[C@@H](CCCCN)C(=O)N[C@@H](CC(C)C)C(=O)N[C@@H](CCCCNC(=O)COCCOCCNC(=O)COCCOCCNC(=O)CC[C@H](NC(=O)CCCCCCCCCCCCCCCCC(=O)O)C(=O)O)C(=O)N[C@@H](CCCCN)C(=O)N[C@H](C(=O)N[C@@H](CC(C)C)C(=O)N[C@@H](CC(C)C)C(=O)N[C@@H](CCC(=O)O)C(=O)N[C@@H](CCC(N)=O)C(=O)N[C@@H](CCC(=O)O)C(=O)N[C@@H](CCCCN)C(=O)N[C@@H](CCC(N)=O)C(=O)N[C@@H](CCCCN)C(=O)N[C@@H](CCCCN)C(=O)N[C@@H](CCC(N)=O)C(=O)N[C@@H](CCCNC(=N)N)C(=O)N[C@@H](CCC(=O)O)C(=O)N[C@@H](CCC(N)=O)C(=O)N[C@@H](C)C(=O)N[C@@H](CCC(=O)O)C(=O)N[C@H](C(=O)N[C@@H](CC(N)=O)C(=O)NC(C)(C)C(=O)N[C@@H](CCC(N)=O)C(=O)N[C@H](C(=O)N[C@@H](CC(C)C)C(=O)N[C@@H](C)C(=O)N[C@@H](CCC(N)=O)C(=O)N[C@H](C(N)=O)C(C)C)[C@@H](C)CC)[C@@H](C)O)[C@@H](C)CC)[C@@H](C)CC)C(C)C)C(C)C [compound 118] (H-[NMeI]VLSLD[dV]PIKLK([AEEA-AEEA-γGlu-C18 diacid])KILLEQEKQKKQREQAETN[Aib]QILAQV-NH2) | −24% | −17% | −4% | >24 h
3 | 0.0/0.0 ^ % | 110 pM | 5770 ng·h/mL | 197 ng/mL | 73% | 0.0/0.0 ^ % | CC[C@H](C)[C@H](NC(C)=O)C(=O)N[C@H](C(=O)N[C@@H](CC(C)C)C(=O)N[C@@H](CO)C(=O)N[C@@H](CC(C)C)C(=O)N[C@@H](CC(=O)O)C(=O)N[C@@H](C(=O)N1CCC[C@H]1C(=O)N[C@H](C(=O)N[C@@H](CCCCN)C(=O)N[C@@H](CC(C)C)C(=O)N[C@@H](CCCCNC(=O)CC[C@H](NC(=O)CCCCCCCCCCCCCCCCCCC(=O)O)C(=O)O)C(=O)N[C@@H](CCCCN)C(=O)N[C@H](C(=O)N[C@@H](CC(C)C)C(=O)N[C@@H](CC(C)C)C(=O)N[C@@H](CCC(=O)O)C(=O)N[C@@H](CCC(N)=O)C(=O)N[C@@H](CCC(=O)O)C(=O)N[C@@H](CCCCN)C(=O)N[C@@H](CCC(N)=O)C(=O)N[C@@H](CCCCN)C(=O)N[C@@H](CCCCN)C(=O)N[C@@H](CCC(N)=O)C(=O)N[C@@H](CCCNC(=N)N)C(=O)N[C@@H](CCC(=O)O)C(=O)N[C@@H](CCC(N)=O)C(=O)N[C@@H](C)C(=O)N[C@@H](CCC(=O)O)C(=O)N[C@H](C(=O)N[C@@H](CC(N)=O)C(=O)NC(C)(C)C(=O)N[C@@H](CCC(N)=O)C(=O)N[C@H](C(=O)N[C@@H](CC(C)C)C(=O)N[C@@H](C)C(=O)N[C@@H](CCC(N)=O)C(=O)N[C@H](C(N)=O)C(C)C)[C@@H](C)CC)[C@@H](C)O)[C@@H](C)CC)[C@@H](C)CC)C(C)C)C(C)C [compound 206] (Ac-IVLSLD[dV]PIKLK([γGlu-C20 diacid])KILLEQEKQKKQREQAETN[Aib]QILAQV-NH2) | −12% | −16% | −13% | >24 h
4 | 0.0/Not Tested % | 120 pM | 9410 ng·h/mL | 325 ng/mL | 84% |  | CC[C@H](C)[C@H](NC)C(=O)N[C@H](C(=O)N[C@@H](CC(C)C)C(=O)N[C@@H](CO)C(=O)N[C@@H](CC(C)C)C(=O)N[C@@H](CC(=O)O)C(=O)N[C@@H](C(=O)N1CCC[C@H]1C(=O)N[C@H](C(=O)N[C@@H](CCCCN)C(=O)N[C@@H](CC(C)C)C(=O)N[C@@H](CCCCNC(=O)CC[C@H](NC(=O)CCCCCCCCCCCCCCCCCCC(=O)O)C(=O)O)C(=O)N[C@@H](CCCCN)C(=O)N[C@H](C(=O)N[C@@H](CC(C)C)C(=O)N[C@@H](CC(C)C)C(=O)N[C@@H](CCC(=O)O)C(=O)N[C@@H](CCC(N)=O)C(=O)N[C@@H](CCC(=O)O)C(=O)N[C@@H](CCCCN)C(=O)N[C@@H](CCC(N)=O)C(=O)N[C@@H](CCCCN)C(=O)NC(C)(C)C(=O)N[C@@H](CCC(N)=O)C(=O)N[C@@H](CCCNC(=N)N)C(=O)N[C@@H](CCC(=O)O)C(=O)N[C@@H](CCC(N)=O)C(=O)N[C@@H](C)C(=O)N[C@@H](CCC(=O)O)C(=O)N[C@H](C(=O)N[C@@H](CC(N)=O)C(=O)NC(C)(C)C(=O)N[C@@H](CCC(N)=O)C(=O)N[C@H](C(=O)N[C@@H](CC(C)C)C(=O)N[C@@H](C)C(=O)N[C@@H](CCC(N)=O)C(=O)N[C@H](C(N)=O)C(C)C)[C@@H](C)CC)[C@@H](C)O)[C@@H](C)CC)[C@@H](C)CC)C(C)C)C(C)C [compound 215] (H-[NMeI]VLSLD[dV]PIKLK([γGlu-C20 diacid])KILLEQEKQK[Aib]QREQAETN[Aib]QILAQV-NH2) | −12% | −14% | −16% | >24 h
